Data as given in patent US7078428B2, “Isoindolone derivatives, preparation process and intermediates of this process, their use as medicaments, and pharmaceutical compositions comprising them” (Sanofi-Aventis Deutschland GmbH, priority 2002, dated 2006).
“And” between values parts separate entries of the source, which are not always exact repeats. Identical values can stand only once.

Molecular target: T1, NHE1 (Homo sapiens, UniProt P19634)
T1 construct: expressed in transfected cells
Assay: NHE inhibition FLIPR test (intracellular pH recovery, BCECF) in transfected LAP-1 cells
Type: cell-based
Conditions: transfected cell line (parental LAP-1) expressing the NHE-1 subtype, pHi recovery after acidification
Description: The NHE inhibitory activities (IC50 values) of the compounds according to the invention were determined by a FLIPR test.
The test is performed in the FLIPR (Fluorescent Imaging Plate Reader) equipped with clear-bottomed and black-walled 96-well microtitration plates.
The growth medium for the transfected cells (Iscove +10% foetal calf serum) also comprises G418 as selection antibiotic to ensure the presence of transfected sequences.
The actual test begins by eliminating the growth medium and adding 100 μl of loading buffer per well (5 μM of BCECF-AM [2′,7′-bis(2-carboxyethyl)-5-(6)-carboxyfluoresceine acetoxymethyl ester] in 20 mM of NH4Cl, 115 mM of choline chloride, 1 mM of CaCl2, 5 mM of KCl, 20 mM of HEPES and 5 mM of glucose; pH 7.4 (adjusted with KOH). The cells are then incubated for 20 minutes at 37° C. This incubation results in the loading of the fluorescent dye into the cells, the fluorescence intensity of which depends on the pHi, and on the NH4Cl, which results in a slight basification of the cells.
The precursor BCECF-AM, a non-fluorescent dye, is, as an ester, capable of crossing the membrane. The actual dye, which is incapable of crossing the membrane, is released inside the cell by esterases.
After this 20-minute incubation, the loading buffer, which comprises NH4Cl and free BCECF-AM, is removed by washing three times in the cell washing device (Tecan Columbus), each wash being performed with 400 μl of washing buffer (133.8 mM of choline chloride, 4.7 mM of KCl, 1.25 mM of MgCl2, 1.25 mM of CaCl2, 0.97 mM of K2HPO4, 0.23 mM of KH2PO4, 5 mM of HEPES and 5 mM of glucose; pH 7.4 (adjusted with KOH)). The residual volume remaining in the wells is 90 μl (possibly between 50 and 125 μl). This washing step removes the free BCECF-AM and results in an intracellular acidification (pHi of 6.3-6.4) due to the removal of the external ammonium ions.
As the equilibrium of the intracellular ammonium with the aqueous ammonia and the protons, by removal of the extracellular ammonium and by the subsequent immediate crossing of the aqueous ammonia across the cell membrane, is disrupted, the washing process results in intracellular protons remaining, which is the cause of the intracellular acidification. This acidification can result finally in the death of the cells if it lasts long enough. It is important here for the washing buffer to be free of sodium (<1 mM), otherwise the extracellular sodium ions would result in an immediate increase in the pHi on account of the activity of the cloned NHE isoforms. It is also important for all the buffers used (loading buffer, washing buffer and regeneration buffer) not to contain any HCO3-ions, otherwise the presence of bicarbonate would result in the activation of bicarbonate-dependent systems that disrupt the pHi regulation, which systems are contained in the LAP-1 parental cell line.
The microtiter plates containing acidified cells are then transferred (up to 20 minutes after the acidification) to the FLIPR. In the FLIPR, the intracellular fluorescent dye is activated with light of a wavelength of 488 nm, which is generated by an argon laser, and the measuring parameters (laser power, illumination time and diaphragm of the […] camera integrated into the FLIPR) are chosen such that the average value of the fluorescent signal per well is between 30,000 and 35,000 relative fluorescence units.
The actual measurement in the FLIPR starts with a photograph being taken by the CCD camera every two seconds under software control. After 10 seconds, the increase in the intracellular pH is initiated by adding 90 μl of regeneration buffer (133.8 mM of NaCl, 4.7 mM of KCl, 1.25 mM of MgCl2, 1.25 mM of CaCl2, 0.97 mM of K2HPO4, 0.23 mM of KH2PO4, 10 mM of HEPES and 5 mM of glucose; pH 7.4 (adjusted with NaOH)) using a 96-well pipette device incorporated into the FLIPR. Some wells, to which is added pure regeneration buffer, serve as positive controls (100% NHE activity). […]

T1 sequence (P19634 whole entry, species assumed): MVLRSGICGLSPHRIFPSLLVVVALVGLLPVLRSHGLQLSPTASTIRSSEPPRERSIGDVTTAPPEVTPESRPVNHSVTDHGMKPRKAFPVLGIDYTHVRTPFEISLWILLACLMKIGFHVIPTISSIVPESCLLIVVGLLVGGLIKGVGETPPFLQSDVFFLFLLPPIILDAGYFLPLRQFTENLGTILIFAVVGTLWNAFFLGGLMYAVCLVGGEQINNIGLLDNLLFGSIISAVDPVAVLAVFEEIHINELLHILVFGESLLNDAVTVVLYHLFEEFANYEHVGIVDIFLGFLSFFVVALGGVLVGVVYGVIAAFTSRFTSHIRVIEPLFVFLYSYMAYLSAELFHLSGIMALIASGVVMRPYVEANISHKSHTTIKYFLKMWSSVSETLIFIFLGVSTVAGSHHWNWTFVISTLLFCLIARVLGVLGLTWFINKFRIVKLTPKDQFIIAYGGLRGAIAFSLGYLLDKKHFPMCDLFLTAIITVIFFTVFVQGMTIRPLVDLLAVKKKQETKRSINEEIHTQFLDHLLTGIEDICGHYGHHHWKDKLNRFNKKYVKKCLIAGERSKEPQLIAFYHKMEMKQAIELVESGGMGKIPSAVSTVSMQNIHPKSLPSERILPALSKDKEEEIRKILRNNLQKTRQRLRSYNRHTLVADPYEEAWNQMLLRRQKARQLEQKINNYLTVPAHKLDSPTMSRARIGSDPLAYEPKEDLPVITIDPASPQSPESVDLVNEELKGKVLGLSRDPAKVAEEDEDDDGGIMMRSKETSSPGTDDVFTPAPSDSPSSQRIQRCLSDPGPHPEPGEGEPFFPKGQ

**Q.** For “N-[2-(5-Chloro-3-oxo-2-(3,3,3-trifluoropropyl)-2,3-dihydro-1H-isoindol-1-yl)acetyl]-guanidine and N-[2-(6-chloro-3-oxo-2-(3,3,3-trifluoropropyl)-2,3-dihydro-1H-isoindol-1-yl)acetyl]quanidine [Example 26]”, which IC50 is on record?
**A.** 8.6 nM

**Q.** `[H]/N=C(\N)NC(=O)CC1c2cc(Cl)c(Cl)cc2C(=O)N1CC1CC1` (single isomer, unassigned) [Example 42a] was tested. Which IC50 did it give?
**A.** 66 nM

**Q.** With `NC(N)=NC(=O)CC1c2cc(C(F)(F)F)ccc2C(=O)N1CC1CC1` (single isomer, unassigned) [Example 38a] as the compound, how does the IC50 read?
**A.** 249 nM

**Q.** “N-[2-(5-Chloro-3-oxo-2-(2,2,2-trifluoroethyl)-2,3-dihydro-1H-isoindol-1-yl)acetyl]-guanidine and N-[2-(6-chloro-3-oxo-2-(2,2,2-trifluoroethyl )-2,3-dihydro-1H-isoindol-1yl)acetyl]quanidine [Example 23]” was tested. Which IC50 did it give?
**A.** 35 nM

**Q.** Which IC50 does the source give for `NC(N)=NC(=O)CC1c2cc(Cl)c(Cl)cc2C(=O)N1C1CC1` (single isomer, unassigned) [Example 43b] here?
**A.** 442 nM

**Q.** With `NC(N)=NC(=O)CC1c2ccc(Cl)cc2C(=O)N1CCC(F)(F)F` (single isomer, unassigned) [Example 50b] as the compound, how does the IC50 read?
**A.** 6 nM

**Q.** Which IC50 does the source give for “N-[2-(3-Oxo-2-(4,4,4-trifluorobutyl)-5-trifluoromethyl-2,3-dihydro-1H-isoindol-1-yl)-acetyl]guanidine and N-[2-(3-Oxo-2-(4,4,4-trifluorobutyl)-6-trifluoromethyl-2,3-dihydro-1H-isoindol-1-yl)acetyl]guanidine [Example 29]” here?
**A.** 2340 nM

**Q.** How did the IC50 turn out when `CC(C)N1C(=O)c2ccccc2C1CC(=O)N=C(N)N` (centres unmarked) [Example 7, N-[2-(2-Isopropyl-3-oxo-2,3-dihydro-1H-isoindol-1-yl)acetyl]guanidine] was run?
**A.** 116 nM

**Q.** How did the IC50 turn out when `CC(C)CN1C(=O)c2ccccc2C1CC(=O)N=C(N)N` (single isomer, unassigned; (+)) [Example 4, (+)-N-[2-(2-Isobutyl-3-oxo-2,3-dihydro-1H-isoindol-1-yl)acetyl]guanidine] was run?
**A.** 57 nM

**Q.** For `NC(N)=NC(=O)CC1c2ccc(C(F)(F)F)cc2C(=O)N1CCC(F)(F)F` (single isomer, unassigned) [Example 52a], which IC50 is on record?
**A.** 50 nM

**Q.** With `NC(N)=NC(=O)CC1c2ccccc2C(=O)N1Cc1ccccc1` (centres unmarked) [Example 9, N-[2-(2-Benzyl-3-oxo-2,3-dihydro-1H-isoindol-1-yl)acetyl]guanidine] as the compound, how does the IC50 read?
**A.** 156 nM

**Q.** For “N-[2-(3-Oxo-5-trifluoromethyl-2-(3,3,3-trifluoropropyl)-2,3-dihydro-1H-isoindol-1-yl)-acetyl]guanidine and N-[2-(3-oxo-6-trifluoromethyl-2-(3,3,3-trifluoropropyl)-2,3-dihydro-1H-isoindol-1-yl)acetyl]guanidine [Example 27]”, which IC50 is on record?
**A.** 22 nM

**Q.** Which IC50 does the source give for `NC(N)=NC(=O)CC1c2ccc(Cl)cc2C(=O)N1CCCC(F)(F)F` (single isomer, unassigned) [Example 54a] here?
**A.** 944 nM

**Q.** With `NC(N)=NC(=O)CC1c2cc(C(F)(F)F)ccc2C(=O)N1CCC(F)(F)F` (single isomer, unassigned) [Example 51a] as the compound, how does the IC50 read?
**A.** 6 nM

**Q.** With `N=C(N)NC(=O)CC1c2cc(F)c(F)cc2C(=O)N1CCC(F)(F)F` (single isomer, unassigned) [Example 40b] as the compound, how does the IC50 read?
**A.** 63 nM

**Q.** Which IC50 does the source give for `NC(N)=NC(=O)CC1c2ccc(C(F)(F)F)cc2C(=O)N1CC(F)(F)F` (single isomer, unassigned) [Example 47a] here?
**A.** 70 nM

**Q.** With `NC(N)=NC(=O)CC1c2cc(Cl)ccc2C(=O)N1CCC(F)(F)F` (single isomer, unassigned) [Example 49a] as the compound, how does the IC50 read?
**A.** 1 nM

**Q.** With `NC(N)=NC(=O)CC1c2cc(Cl)c(Cl)cc2C(=O)N1C1CC1` (single isomer, unassigned) [Example 43a] as the compound, how does the IC50 read?
**A.** 53 nM

**Q.** How did the IC50 turn out when `NC(N)=NC(=O)CC1c2cc(C(F)(F)F)ccc2C(=O)N1CC(F)(F)F` (single isomer, unassigned) [Example 46b] was run?
**A.** 0.2 nM

**Q.** With `NC(N)=NC(=O)CC1c2cc(F)c(F)cc2C(=O)N1CC(F)(F)F` (centres unmarked) [Example 45, N-{2-[5,6-Difluoro-3-oxo-2-(2,2,2-trifluoro-ethyl)-2,3-dihydro-1H-isoindol-1-yl]-acetyl}-guanidine] as the compound, how does the IC50 read?
**A.** 212 nM

**Q.** `CC(C)CN1C(=O)c2cc(OC(C)C)ccc2C1CC(=O)N=C(N)N` (centres unmarked) [Example 16, N-[2-(2-Isobutyl-5-isopropoxy-3-oxo-2,3-dihydro-1H-isoindol-1-yl)-acetyl]-guanidine] was tested. Which IC50 did it give?
**A.** 251 nM

**Q.** How did the IC50 turn out when `NC(N)=NC(=O)CC1c2cc(C(F)(F)F)ccc2C(=O)N1CC(F)(F)F` (centres unmarked) [Example 21, N-{2-[3-Oxo-2-(2,2,2-trifluoro-ethyl)-6-trifluoromethyl-2,3-dihydro-1H-isoindol-1-yl]-acetyl}-quanidine] was run?
**A.** 4.9 nM

**Q.** With `NC(N)=NC(=O)CC1c2ccc(Cl)cc2C(=O)N1CCCC(F)(F)F` (single isomer, unassigned) [Example 54b] as the compound, how does the IC50 read?
**A.** 48 nM

**Q.** With `CN1C(=O)c2ccccc2C1CC(=O)N=C(N)N` (centres unmarked) [Example 1, N-[2-(2-Methyl-3-oxo-2,3-dihydro-1H-isoindol-1-yl)acetyl]guanidine] as the compound, how does the IC50 read?
**A.** 74 nM

**Q.** How did the IC50 turn out when `NC(N)=NC(=O)CC1c2cc(Cl)c(Cl)cc2C(=O)N1CC(F)(F)F` (single isomer, unassigned) [Example 44b] was run?
**A.** 13 nM

**Q.** For `NC(N)=NC(=O)CC1c2ccc(C(F)(F)F)cc2C(=O)N1CCC(F)(F)F` (single isomer, unassigned) [Example 52b], which IC50 is on record?
**A.** 671 nM

**Q.** `[H]/N=C(\N)NC(=O)CC1c2cc(S(C)(=O)=O)ccc2C(=O)N1CC(F)(F)F` [Example 36, (R)-N-{2-[6-Methanesulfonyl-3-oxo-2-(2,2,2-trifluoro-ethyl)-2,3-dihydro-1H-isoindol-1-yl]-acetyl}-quanidine and (S)-N-{2-[6-Methanesulfonyl-3-oxo-2-(2,2,2-trifluoro-ethyl)-2,3-dihydro-1H-isoindol-1-yl]-acetyl}-quanidine] was tested. Which IC50 did it give?
**A.** 31 nM

**Q.** With `CC(C(=O)NC(=N)N)C1c2ccccc2C(=O)N1CCO` (single isomer, unassigned) [Example 33] as the compound, how does the IC50 read?
**A.** 3600 nM and 4700 nM

**Q.** With `NC(N)=NC(=O)CC1c2ccc(Cl)cc2C(=O)N1CC1CC1` (single isomer, unassigned) [Example 56b] as the compound, how does the IC50 read?
**A.** 18 nM

**Q.** `NC(N)=NC(=O)CC1c2cc(Cl)ccc2C(=O)N1CCCC(F)(F)F` (single isomer, unassigned) [Example 53b] was tested. Which IC50 did it give?
**A.** 16 nM

**Q.** Which IC50 does the source give for `NC(N)=NC(=O)CC1c2cc(Cl)ccc2C(=O)N1CC1CC1` (single isomer, unassigned) [Example 55a] here?
**A.** 2 nM

**Q.** Which IC50 does the source give for `NC(N)=NC(=O)CC1c2ccc(Cl)cc2C(=O)N1CC1CC1` (single isomer, unassigned) [Example 56a] here?
**A.** 28 nM

**Q.** `[H]/N=C(\N)NC(=O)CC1c2cc(S(C)(=O)=O)ccc2C(=O)N1CC1CC1` (centres unmarked) [Example 37, N-[2-(2-Cyclopropylmethyl-6-methanesulfonyl-3-oxo-2,3-dihydro-1H-isoindol-1-yl)acetyl]-guanidinium acetate] was tested. Which IC50 did it give?
**A.** 188 nM

**Q.** Which IC50 does the source give for `NC(N)=NC(=O)CC1c2cc(Cl)c(Cl)cc2C(=O)N1CC(F)(F)F` (centres unmarked) [Example 44a, N-{2-[5,6-Dichloro-3-oxo-2-(2,2,2-trifluoro-ethyl)-2,3-dihydro-1H-isoindol-1-yl]-acetyl}-guanidine acetate] here?
**A.** 2 nM

**Q.** `[H]/N=C(\N)NC(=O)CC1c2cc(S(C)(=O)=O)ccc2C(=O)N1CC(F)(F)F` (single isomer, unassigned) [Example 36a] was tested. Which IC50 did it give?
**A.** 524 nM
